Experimental data from patent US20230088528A1, “USE OF LIPID IN PREPARATION OF NUCLEIC ACID DELIVERY REAGENT AND RELATED PRODUCT THEREOF” (INSTITUTE OF BASIC MEDICAL SCIENCES CHINESE ACADEMY OF …, priority 2019, published 2023).
Structures can show the parent of a compound that is named as a salt.

Experiment: In vivo delivery of lipid-nucleic acid mixture (PGY-sRNA-26) by gavage, relative intake in blood and tissues by RT-qPCR
Parameters: species or system C57BL/6 male mice
Conditions: for oral delivery of sRNA single-chain nucleic acid into the blood, and lung, kidney, spleen, and heart tissues of mice / oral delivery of sRNA single-chain nucleic acid into the blood, and lung, kidney, spleen, heart, and intestinal tissue of mice: 100 μg lipid:1 nmol PGY-sRNA-26 per mouse, 12 hrs after gavage, vs free intake group; for number of organs into which nucleic acid is significantly delivered: among the 6 organs in the experiments
Method: The concentration of a lipid solution in chloroform was 10 mg/ml (stock solution), and grouping was performed according to the lipid compound number.
1 nmol of small RNA (as shown in Table 2) was dissolved in 400 μl of DEPC-treated water in a glass tube, and 10 μl of a corresponding lipid stock solution was added, to give a system containing 100 μg of lipid. The system was well mixed, heated for 15 min in a water bath at 90° C., and then naturally cooled, to obtain a lipid-nucleic acid mixture of the lipid and small RNA.
The C57BL/6 male mice used in the experiment were purchased from Beijing Vital River Laboratory Animal Technology Co., Ltd., about 6 weeks old, and weighed 20-24 g. They were kept in an SPF animal room of the Animal Center of the Institute of Basic Medical Sciences, Chinese Academy of Medical Sciences. The mice were fasted for 12 hrs before gavage.
The lipid-nucleic acid mixture was prepared following the method as described in Example 2. The prepared lipid-nucleic acid mixture was orally administered at a dose of 100 μg lipid:1 nmol single-stranded small RNA PGY-sRNA-26 per mouse.
1) Blank group: Mice (n=4) were given 500 μl of normal saline by gavage, and this group served as a blank control group;
2) Free intake group: Mice (n=4) were given sRNA solution (1 nmol/animal, 500 μl) by direct gavage, and this group served as a negative control group;
3) Lipid treatment group: Mice (n=4) were given 500 μl of the lipid-nucleic acid mixture prepared in step 2 by gavage.
12 hrs after gavage in each group of mice, 500 μl of blood was taken from the eyeball, and 1.5 ml of Trizol Reagent LS (purchased from Invitrogen) was added and mixed well for lysis. The tissue sample was added with 3 ml of Trizol Reagent LS. and homogenized for full lysis, wherein the tissue sample included lung/kidney/spleen/heart/gut. 1 ml of blood or tissue lysate was taken and RNA was extracted according to the following steps.
The blood or tissue lysate was centrifuged at 4° C., and 12,000 rpm for 5 min, the pellet was discarded, and Trizol was transferred to a new centrifuge tube.
Chloroform was added in an amount of 200 μL chloroform/mL Trizol, shaken fully until uniform, and allowed to stand at room temperature for 5 min.
The sample was centrifuged at 4° C., and 12,000 rpm, for 15 min.
The upper aqueous phase was pipetted to another centrifuge tube, and isopropanol was added in an amount of 0.4 mL isopropanol/mL Trizol, mixed well, and allowed to stand at a low temperature for 10-20 min.
The sample was centrifuged at 4° C., and 12,000 rpm, for 15 min, the supernatant was discarded, and the RNA pellet was at the bottom of the tube.
1 mL of 75% ethanol was added, and the centrifuge tube was shaken gently, to suspend the pellet.
The sample was centrifuged at 4° C., and 12,000 rpm, for 10 min, the supernatant was discarded, 1 mL of 75% ethanol was added, and the centrifuge tube was shaken gently, to suspend the pellet.
The sample was centrifuged at 4° C., and 12,000 rpm, for 10 min, the supernatant was discarded, and the sample was air dried at room temperature. The RNA sample was dissolved in 50-100 μL of RNase-free H2O, and the RNA concentration was quantified by determining the OD value.
The sRNA was reversely transcribed into cDNA using a reverse transcription kit (High-Capacity cDNA Reverse Transcription Kits, Applied Biosystems, cat. no. 4368813), following the stem-loop method (see, for example Real-time quantification of microRNAs by stem-loop RT-PCR, Nucleic Acids Res. 2005 Nov. 27; 33(20):e179, incorporated herein by reference). System for reverse transcription: template RNA (200 ng/μL) 10 μL, 10×RT buffer 2.0 μL, 25×dNTP Mix (100 mM) 0.8 μL, U6 RT stem-loop primer 2.0 μL, PGY-sRNA-26 RT stem-loop primer 2.0 μL, MultiScribe™ reverse transcriptase 1.0 μL, RNAase inhibitor 1.0 μL, and nuclease-free water H2O 1.2 μL. […]

[1] = significant difference compared to the control, 100 μg lipid:1 nmol PGY-sRNA-26, 12 hrs

Row | Compound | oral delivery of sRNA single-chain nucleic acid into the blood, and lung, kidney, spleen, and heart tissues of mice | oral delivery of sRNA single-stranded nucleic acid into the spleen tissue of mice [1] | oral delivery of sRNA single-chain nucleic acid into the blood, and lung, kidney, spleen, heart, and intestinal tissue of mice | other results
1 | 1,2-myristin-3-palmitin [Lipid 80] | can effectively orally deliver | can significantly efficiently orally deliver |  | number of organs into which nucleic acid is significantly delivered: two organs; oral delivery of sRNA single-stranded nucleic acid into the heart tissue of mice [1]: can significantly efficiently orally deliver
2 | 1,2-stearin-3-olein [Lipid 77] | can effectively orally deliver | can significantly efficiently orally deliver |  | 
3 | 1,3-palmitin-2-myristin [Lipid 76] | can effectively orally deliver | can significantly efficiently orally deliver |  | number of organs into which nucleic acid is significantly delivered: two organs; oral delivery of sRNA single-stranded nucleic acid into the lung tissue of mice [1]: can significantly efficiently orally deliver
4 | 1-palmitoyl-2-oleoyl-sn-glycero-3-phospho-(1′-rac-glycerol) (sodium salt) [Lipid 88] |  |  | can effectively orally deliver | oral delivery of sRNA single-stranded nucleic acid into the kidney tissue of mice [1]: can significantly efficiently orally deliver
5 | CCCCCCCC/C=C\CCCCCCCC(=O)OC[C@H](COP(=O)(O)OCCN)OC(=O)CCCCCCC/C=C\CCCCCCCC [Lipid 72, 1,2-dioleoyl-sn-glycero-3-phosphatidylethanolamine] | can effectively orally deliver |  |  | oral delivery of sRNA single-stranded nucleic acid into the lung tissue of mice [1]: can significantly efficiently orally deliver
6 | CCCCCCCCC=CCCCCCCCC(=O)OCC(COC(=O)CCCCCCCCCCCCCCCCCCC)OC(=O)CCCCCCCC=CCCCCCCCC (stereo not drawn) [Lipid 78, 1,2-olein-3-arachidin] | can effectively orally deliver |  |  | 
7 | CCCCCCCCC=CCCCCCCCC(=O)OCC(COC(=O)CCCCCCCCCCCCCCCCCCCCC)OC(=O)CCCCCCCC=CCCCCCCCC (stereo not drawn) [Lipid 79, 1,2-olein-3-behenin] | can effectively orally deliver | can significantly efficiently orally deliver |  | 
8 | CCCCCCCC/C=C\CCCCCCCC(=O)OC[C@H](COP(=O)([O-])OCC(O)CO)OC(=O)CCCCCCC/C=C\CCCCCCCC.[Na+] (stereo partly drawn) [Lipid 81, 1,2-dioleoyl-sn-glycero-3-phosphatidylglycerol sodium salt] | can effectively orally deliver | can significantly efficiently orally deliver |  | 
9 | COC1=C(OC)C(=O)C(C/C=C(\C)CC/C=C(\C)CC/C=C(\C)CC/C=C(\C)CC/C=C(\C)CC/C=C(\C)CC/C=C(\C)CC/C=C(\C)CC/C=C(\C)CCC=C(C)C)=C(C)C1=O [Lipid 82, Q-10, Ubiquinone 50, Ubiquinone 10] |  |  | can effectively orally deliver | 
10 | CCCCCCCCCCCCCCCCOC[C@H](COP(=O)([O-])OCC[N+](C)(C)C)OC(C)=O [Lipid 84, β-acetyl-γ-O-hexadecyl-L-α-phosphatidylcholine hydrate] |  |  | can effectively orally deliver | 
11 | CCCCCCCCCCCCCCCCOC[C@H](COP(=O)([O-])OCC[N+](C)(C)C)OC(C)=O [Lipid 85, β-acetyl-γ-O-alkyl-L-α-phosphatidylcholine] |  |  | can effectively orally deliver | 
12 | CCCCCCCC/C=C\CCCCCCCC(=O)O[C@H](COC(=O)CCCCCCCCCCCCCCC)COP(=O)([O-])OCC[N+](C)(C)C [Lipid 86, 1-palmitoyl-2-oleoyl-sn-glycero-3-phosphocholine] |  |  | can effectively orally deliver | 
13 | CCCCCCCC/C=C\CCCCCCCC(=O)O[C@H](COC(=O)CCCCCCCCCCCCCCCCC)COP(=O)([O-])OCC[N+](C)(C)C [Lipid 87, 1-stearoyl-2-oleoyl-sn-glycero-3-phosphocholine] |  |  | can effectively orally deliver | 
14 | CCCCCCCC/C=C\CCCCCCCCCCCCCC(=O)N[C@@H](CO)[C@H](O)/C=C/CCCCCCCCCCCCC [Lipid 91, N-nervonoyl-D-erythro-sphingosine] |  |  | can effectively orally deliver | oral delivery of sRNA single-stranded nucleic acid into the kidney tissue of mice [1]: can significantly efficiently orally deliver
15 | CCCCCCCCCCCCCCCCC/C=C/[C@@H](O)[C@@H](N)CO [Lipid 97, D-erythro-sphingosine (C22 group)] |  |  | can effectively orally deliver | number of organs into which nucleic acid is significantly delivered: two organs; oral delivery of sRNA single-stranded nucleic acid into the kidney tissue of mice [1]: can significantly efficiently orally deliver; oral delivery of sRNA single-stranded nucleic acid into the lung tissue of mice [1]: can significantly efficiently orally deliver
16 | CCCCCCCCCCCCC/C=C/[C@@H](O)[C@@H](N)CO [Lipid 98, D-erythro-sphingosine] |  | can significantly efficiently orally deliver | can effectively orally deliver | overall nucleic acid delivery performance among the lipids (across the 6 organs in the experiments): most significant delivery performance; oral delivery of sRNA single-stranded nucleic acid into the kidney tissue of mice [1]: can significantly efficiently orally deliver; oral delivery of sRNA single-stranded nucleic acid into the lung tissue of mice [1]: can significantly efficiently orally deliver
17 | CCCCCCCCC/C=C/[C@@H](O)[C@@H](N)CO [Lipid 99, D-erythro-sphingosine (C14 group)] |  | can significantly efficiently orally deliver | can effectively orally deliver | 
18 | CCCCCCCCCCC/C=C/[C@@H](O)[C@@H](N)CO [Lipid 100, D-erythro-sphingosine (C16 group)] |  | can significantly efficiently orally deliver | can effectively orally deliver | 
19 | CCCCC/C=C\C/C=C\CCCCCCCC(=O)OC[C@H](COP(=O)([O-])OCC[N+](C)(C)C)OC(=O)CCCCCCC/C=C\C/C=C\CCCCC [Lipid 107, 1,2-dilinoleoyl-sn-glycero-3-phosphocholine] |  |  | can effectively orally deliver | 
20 | CCCCCCCCCCCCCCCC(=O)OC[C@H](COP(=O)(O)O[C@H]1C(O)C(O)C(O)[C@@H](O)C1O)OC(=O)CCCCCCCCCCCCCCC (stereo partly drawn) [Lipid 109, 1,2-dipalmitoyl-sn-glycero-3-phospho-(l′-myo-inositol) (ammonium salt)] |  |  | can effectively orally deliver | 
21 | CCCCCCCCCCCCCCCCCC(=O)OCC(O)COC(=O)CCCCCCCCCCCCCCC (stereo not drawn) [Lipid 111, 1-palmitin-3-stearin] |  |  | can effectively orally deliver | 
